Laboratory results taken from patent US10343977B2, “Tetrahydro-isohumulone derivatives, methods of making and using” (KINDEX PHARMACEUTICALS, INC., priority 2012, dated 2019).

Tests used:
[1] = test system: LPS-mediated inflammatory mediators in RAW264.7 and THP-1 cells; assay: Mean inhibition across all six inflammatory mediators; format: cell-based; settings: 12.5 μM test compound
Method: (§1) The effect of the THIAA derivatives on LPS-mediated prostaglandin E2 (PGE2) and nitric oxide (NO) production was evaluated in a RAW264.7 murine macrophage model. The RAW 264.7 cell line was purchased from ATCC (Manassas, Va.) and maintained according to their instructions. Cells were grown and subcultured in 96-well plates at a density of 8×10^4 cells per well, and reached 80-90% confluence the next day. THIAA derivatives were added to the cells in serum-free medium at a final concentration of 0.1% DMSO. Following one hour of incubation with the THIAA derivatives, LPS (1 μg/ml) or DMEM medium alone was added to the cells and incubation was continued for 6 hours. Stimulation of RAW 264.7 cells with LPS (1 μg/ml) for 6 hours activated the production of PGE2 and NO. Supernatant media was collected for measurement of PGE2 levels. For NO, incubations were continued overnight. Supernatant media was collected for measurement of NO levels after 16 hours of stimulation. PGE2 levels were measured using assay kits from Assay Designs, (Ann Arbor, Mich.) and NO levels were measured using assay kits from Cayman Chemicals (Ann Harbor, Mich.).
(§2) The effect of the THIAA derivatives on LPS-mediated MMP-9, IL-1β, ([…], MCP-1, RANTES, and MIP-1α was evaluated in THP-1 cells. Stimulation of THP-1 cells with LPS (1 μg/ml) activated the production of MMP-9, IL-1β, MCP-1, RANTES, and MIP-1α.
(§3) Results are summarized in Table 2, with data represented as % inhibition of inflammatory mediator production.
Mean inhibition across all six inflammatory mediators was calculated for each of the THIAA derivatives.

[2] = test system: LPS-mediated IL-6 production in THP-1 cells; assay: LPS-mediated IL-6 production in THP-1 cells; format: cell-based; settings: Homo sapiens; 12.5 μM test compound; THP-1 cells, LPS 1 μg/ml; NI = no inhibition
Method: (§4) THIAA derivatives synthesized in Examples 1-19 were dissolved in dimethyl sufoxide (DMSO) and stored at −20° C. LPS was purchased from Sigma Chemicals (St. Louis, Miss.).
as §2, §3

[3] = test system: LPS-mediated RANTES production in THP-1 cells; assay: LPS-mediated RANTES production in THP-1 cells; format: cell-based; settings: Homo sapiens; 12.5 μM test compound; THP-1 cells, LPS 1 μg/ml; NI = no inhibition
Method: as §4, §2, §3

[4] = test system: LPS-mediated nitric oxide (NO) production in RAW264.7 cells; assay: LPS-mediated NO production in RAW264.7 murine macrophage model; format: cell-based; settings: Mus musculus, RAW264.7, 16 h, 12.5 μM test compound, LPS 1 μg/ml, NI = no inhibition
Method: as §4, §1, §3

PPARα = target: T1, PPARα (Homo sapiens, UniProt Q07869); assay: PPARα reporter assay (INDIGO Biosciences); format: cell-based; settings: 12.5 μM test compound, luciferase reporter cells, 20 hours, activity compared to GW590735; for Emax at 12.5 µM: read-out: PPARα % GW590735 (20.6 nM)
T1 sequence (Q07869 1-468): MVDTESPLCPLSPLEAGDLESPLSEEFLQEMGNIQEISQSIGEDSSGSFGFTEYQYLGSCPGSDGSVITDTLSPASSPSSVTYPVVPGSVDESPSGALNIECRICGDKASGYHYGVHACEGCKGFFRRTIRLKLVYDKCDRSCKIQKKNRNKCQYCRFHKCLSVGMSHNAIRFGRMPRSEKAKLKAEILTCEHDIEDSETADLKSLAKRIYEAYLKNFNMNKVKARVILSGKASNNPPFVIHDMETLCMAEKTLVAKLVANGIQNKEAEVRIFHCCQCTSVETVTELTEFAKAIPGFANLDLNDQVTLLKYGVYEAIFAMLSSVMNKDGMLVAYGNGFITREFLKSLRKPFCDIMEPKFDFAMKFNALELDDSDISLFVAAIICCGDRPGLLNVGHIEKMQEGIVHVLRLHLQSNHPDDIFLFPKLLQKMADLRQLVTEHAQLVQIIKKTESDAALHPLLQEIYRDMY
Method: (§5) The functional effect of THIAA derivatives on PPARα and PPARγ activity was evaluated using a PPAR reporter assay (INDIGO Biosciences, Pa.). This assay utilizes non-human mammalian cells engineered to provide constitutive high level expression of PPARα, or PPARγ and containing a luciferase report gene specific to the appropriate PPAR. Following activation by agonist binding, PPAR induces expression of the luciferase reporter gene. Luciferase activity therefore provides a surrogate for measuring PPAR activity in agonist-treated cells.
(§6) 0.1% DMSO was used as a solvent control for each assay. Plates were incubated for 20 hours in a humidified incubator at 37° C. and 5% CO2. After incubation, the cell medium was discarded and the cells were treated with 100 μL of luciferase detection reagent for 15 minutes. Plates were analyzed using a luminometer (Victor2, Perkin Elmer). Average relative light unit (RLU) and standard deviation were measured.

[5] = test system: LPS-mediated MIP-1α production in THP-1 cells; assay: LPS-mediated MIP-1α production in THP-1 cells; format: cell-based; settings: Homo sapiens; 12.5 μM test compound; THP-1 cells, LPS 1 μg/ml; NI = no inhibition
Method: as §4, §2, §3

[6] = test system: LPS-mediated MCP-1 production in THP-1 cells; assay: LPS-mediated MCP-1 production in THP-1 cells; format: cell-based; settings: Homo sapiens; 12.5 μM test compound; THP-1 cells, LPS 1 μg/ml; NI = no inhibition
Method: as §4, §2, §3

[7] = test system: LPS-mediated prostaglandin E2 (PGE2) production in RAW264.7 cells; assay: LPS-mediated PGE2 production in RAW264.7 murine macrophage model; format: cell-based; settings: Mus musculus, RAW264.7, 6 h, 12.5 μM test compound, LPS 1 μg/ml, NI = no inhibition
Method: as §4, §1, §3

PPARγ = target: T2, PPARγ (Homo sapiens, UniProt P37231); assay: PPARγ reporter assay (INDIGO Biosciences); format: cell-based; settings: 20 h, read-out: PPARγ % rosiglitazone (500 nM), 12.5 μM test compound; luciferase reporter cells, 20 hours; activity compared to rosiglitazone
T2 sequence (P37231 1-505): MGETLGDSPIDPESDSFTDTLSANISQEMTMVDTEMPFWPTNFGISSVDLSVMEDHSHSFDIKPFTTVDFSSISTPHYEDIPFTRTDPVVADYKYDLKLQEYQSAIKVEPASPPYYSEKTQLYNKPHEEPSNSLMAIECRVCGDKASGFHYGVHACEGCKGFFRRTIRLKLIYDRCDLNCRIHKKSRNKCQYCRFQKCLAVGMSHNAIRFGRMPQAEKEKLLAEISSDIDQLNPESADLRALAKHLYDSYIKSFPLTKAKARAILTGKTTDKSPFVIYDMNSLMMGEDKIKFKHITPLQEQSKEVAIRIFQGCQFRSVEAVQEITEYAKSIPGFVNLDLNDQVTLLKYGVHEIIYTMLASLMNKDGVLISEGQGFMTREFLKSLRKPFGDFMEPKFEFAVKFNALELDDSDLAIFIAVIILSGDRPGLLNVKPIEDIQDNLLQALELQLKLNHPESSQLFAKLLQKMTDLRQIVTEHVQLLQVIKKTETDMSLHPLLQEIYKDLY
Method: as §5, §6

Row | Emax at 12.5 µM (PPARα) [%] | Emax at 12.5 µM (PPARγ) [%] | PPARα % GW590735 (20.6 nM) (PPARα) | melting point [°C] | Structure (SMILES) | inhibition at 12.5 µM [1] [%] | inhibition at 12.5 µM [2] [%] | inhibition at 12.5 µM [3] [%] | inhibition at 12.5 µM [4] [%] | inhibition at 12.5 µM [5] [%] | inhibition at 12.5 µM [6] [%] | inhibition at 12.5 µM [7] [%]
1 | < 5 | < 5 |  |  | CC(C)CCC(=O)[C@@]1(O)C(=O)/C(=C(\CC(C)C)NCc2ccccc2)C(=O)[C@@H]1CCC(C)C [KDT0024, (4R,5R)-2-[1-(benzylamino)-3-methylbutylidene]-4-hydroxy-5-(3-methylbutyl)-4-(4-methylpentanoyl)cyclopentane-1,3-dione] | 44 | 53 | 20 | 27 | < 0 | 80 | 81
2 | 40 | 43 | dual PPARα and PPARγ agonists |  | C#CCCOC(=O)O[C@]1(C(=O)CCC(C)C)C(O)=C(C(=O)CC(C)C)C(=O)[C@@H]1CCC(C)C [KDT0035, but-3-yn-1-yl (1S,5R)-2-hydroxy-3-(3-methylbutanoyl)-5-(3-methylbutyl)-1-(4-methylpentanoyl)-4-oxocyclopent-2-en-1-yl carbonate] | 77 | 65 | 84 | 44 | 82 | 95 | 89
3 | < 5 | ≥ 5 | no effect |  | CCCCCCCCCC(=O)O[C@]1(C(=O)CCC(C)C)C(O)=C(C(=O)C(C)C)C(=O)[C@@H]1CCC(C)C [KDT0036, (1S,5R)-2-hydroxy-5-(3-methylbutyl)-1-(4-methylpentanoyl)-3-(2-methylpropanoyl)-4-oxocyclopent-2-en-1-yl decanoate] | 73 | 83 | 88 | 97 | 25 | 98 | 45
4 | < 5 | < 5 |  |  | CC(C)CC[C@H]1C(=O)C(C(=O)CC(C)C)=C(O)[C@]1(O)C(=O)CCC(C)C(=O)O (stereo partly drawn) [KDT0038, 5-[(1S,5R)-1,2-dihydroxy-3-(3-methylbutanoyl)-5-(3-methylbutyl)-4-oxocyclopent-2-en-1-yl]-2-methyl-5-oxopentanoic Acid] | < 20 | < 0 | < 20 | < 0 | < 0 | 46 | < 0
5 | < 5 | < 5 |  |  | CC(C)CCC(O)[C@@]1(O)C(O)=C(C(=O)CC(C)C)C(=O)[C@@H]1CCC(C)C (stereo partly drawn) [KDT0039, (4R,5R)-3,4-dihydroxy-4-(1-hydroxy-4-methylpentyl)-2-(3-methylbutanoyl)-5-(3-methylbutyl)cyclopent-2-en-1-one] | 26 | 22 | 58 | < 20 | 23 | 50 | < 0
6 | < 5 | < 5 |  |  | CC(C)=CC[C@H]1C(=O)C(C(=O)CC(C)C)=C(O)[C@]1(O)C(=O)/C=C/C(C)(C)O [KDT0040, (4S,5R)-3,4-dihydroxy-4-[(2E)-4-hydroxy-4-methylpent-2-enoyl]-2-(3-methylbutanoyl)-5-(3-methylbut-2-en-1-yl)cyclopent-2-en-1-one] | 25 | < 0 | 18 | 26 | < 0 | 53 | 54
7 | < 5 |  | no effect | 49 to 50 | CC(C)CCC(=O)[C@@]1(O)C(O)=C(C(=O)C(C)C)C(=O)[C@@H]1CCC(C)C [KDT100, (4S,5R)-3,4-dihydroxy-5-(3-methylbutyl)-4-(4-methylpentanoyl)-2-(2-methylpropanoyl)cyclopent-2-en-1-one] | < 20 | < 20 | 22 | < 0 | < 0 | 61 | < 0
8 | < 5 | < 5 |  |  | CC(C)CCC(=O)[C@@]1(O)C(O)=C(C(=O)CC(C)C)C(=O)[C@H]1CCC(C)C [KDT700, (4S,5S)-3,4-dihydroxy-2-(3-methylbutanoyl)-5-(3-methylbutyl)-4-(4-methylpentanoyl)cyclopent-2-en-1-one] | 34 | < 20 | 64 | < 0 | 36 | 88 | < 20
